Where two headings read alike, the source gives them in different places.

The subject of data set [1] is relapsed or refractory DLBCL. To be noted: cited from earlier work.
A short description of data set [2]: L-MIND phase 2 study: safety (adverse events).
Experimental: MOR00208 was administered intravenously at a dose of 12 mg/kg, over approximately 2 hours. For cycles 1 to 3, MOR00208 was administered weekly on days 1, 8, 15, and 22; an additional loading dose was administered on day 4 of cycle 1. […] Patients self-administered lenalidomide orally, starting with 25 mg daily on days 1-21 of each 28-day cycle. A step-wise dose reduction (decrease by 5 mg/day in each step, only once per cycle, without re-escalation) of lenalidomide was permitted in case of protocol-defined toxicities.
Efficacy analyses are based on the full analysis set comprising all patients who received at least one dose of both MOR00208 and lenalidomide; safety analyses were based on those who received at least one dose of either study medication.

For `Nc1cccc2c1CN(C1CCC(=O)NC1=O)C2=O` (stereo not shown) [lenalidomide], in data set [1] (prior studies in similar populations), the Objective response rate is recorded as 28%.

Consider “MOR00208: Fc-enhanced humanized anti-CD19 monoclonal antibody, sequences in Table 1 (SEQ ID NO: 1-12)”, for which, in data set [1] (single-agent, relapsed or refractory DLBCL (Ann. Oncol. 29, 1266-1272, 2018)), the Objective response rate is given as 26%. In addition, the “Grade 3 or 4 neutropenia” value in data set [2] (MOR00208 monotherapy after discontinuation of lenalidomide, 6/51 patients) is reported as 11.8%. Also, the “Adverse events of grade 3 or 4” value in data set [2] (after lenalidomide discontinuation, 15/51 patients) is listed as 29.4%.

(Values after US20210130460A1, “ANTI-CD19 THERAPY IN COMBINATION WITH LENALIDOMIDE FOR THE TREATMENT OF LEUKEMIA OR LYMPHOMA” (MORPHOSYS AG, priority 2019, published 2021).)
